From EP4603105A1, “PHARMACEUTICAL COMPOSITION CONTAINING CYCLIC COMPOUND HAVING SELECTIVE KRAS INHIBITORY EFFECT AGAINST HRAS AND NRAS” (CHUGAI SEIYAKU KABUSHIKI KAISHA, priority 2022, dated 2024)
Where two headings read alike, the source gives them in different places. *1 amine or outer side, *2 acyl side, *3 side chain or, on linkers, in order; H or OH if unused. Where a SMILES comes first, the peptide text is derived from it. Bridges are numbered along the chain shown (N, C = ends). [ ]: non-standard residue; d: D form. The star is where a group is joined. hPhe(3-Cl-4-CF3) = N[C@@H](CCc1ccc(C(F)(F)F)c(Cl)c1)C(=O)O; NPrPhe(4-CF3) = CCCN[C@@H](Cc1ccc(C(F)(F)F)cc1)C(=O)O; X46 = C=CCCN([C@@H](Cc1ccc(C)cc1)C(=O)[*:2])[*:1]; X1 = CCCCN([C@@H](Cc1ccc(C)cc1)C(=O)[*:2])[*:1]; NMeGly(cPent) = CN[C@H](C(=O)O)C1CCCC1; Hyp = O=C(O)[C@@H]1C[C@@H](O)CN1; Piperidide(4-Me) = CC1CCN(*)CC1; NMeD = CN[C@@H](CC(=O)O)C(=O)O; NMeL = CN[C@@H](CC(C)C)C(=O)O; X10 = N#CCN(CC(=O)[*:2])[*:1]; Morpholide = C1CN(*)CCO1; NMeA = CN[C@@H](C)C(=O)O; Ac5c = NC1(C(=O)O)CCCC1; Aze = O=C(O)[C@@H]1CCN1; Ac4c = NC1(C(=O)O)CCC1; Sar = CNCC(=O)O

Tests used:
[1] = target: GDP-bound NRAS wild-type protein (Homo sapiens, UniProt P01111); assay: Binding to NRAS by surface plasmon resonance (SPR), KD and KD ratio to KRAS
Sequence of GDP-bound NRAS wild-type protein (P01111 whole entry): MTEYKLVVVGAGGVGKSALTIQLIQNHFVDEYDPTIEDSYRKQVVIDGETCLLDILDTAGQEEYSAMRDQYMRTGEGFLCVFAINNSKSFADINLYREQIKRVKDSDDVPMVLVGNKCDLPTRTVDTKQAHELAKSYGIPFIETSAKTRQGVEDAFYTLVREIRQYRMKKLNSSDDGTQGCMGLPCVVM
In short: (§1)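 GDP-bound biotin-Avi RAS captured at ~100–300 RU, 30°C, pH 7.4 HBS containing 10 µM GDP, 10 mM MgCl2, 1 mM DTT, 0.01% Tween 20 and 4% DMSO. KD by 1:1 fitting.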

[2] = tested on: human lung cancer strain NCI-H441; format: cell-based
In short: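 Readout: […] after the ATP-based reagent. Compound: serial dilutions in dimethyl sulfoxide.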

HRAS wild-type protein = HRAS wild-type protein (Homo sapiens, UniProt P01112); assay: Binding to HRAS by surface plasmon resonance (SPR), KD and KD ratio to KRAS
Sequence of HRAS wild-type protein (P01112 whole entry): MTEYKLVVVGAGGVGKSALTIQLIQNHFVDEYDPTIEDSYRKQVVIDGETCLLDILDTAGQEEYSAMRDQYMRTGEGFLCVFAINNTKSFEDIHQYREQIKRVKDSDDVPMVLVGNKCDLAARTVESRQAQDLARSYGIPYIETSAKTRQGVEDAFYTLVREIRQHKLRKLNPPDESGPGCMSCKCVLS
In short: as §1

[3] = ratio of KD for GDP-bound NRAS wild-type protein to KD for KRAS
[4] = ratio of KD for HRAS wild-type protein to KD for KRAS
[5] = ratio of the KD value with respect to GDP-bound NRAS wild-type protein to the KD value with respect to KRAS
[6] = ratio of the KD value with respect to HRAS wild-type protein to the KD value with respect to KRAS

Compound	NRAS /KRAS [1, 3]	IC50 [2]	HRAS /KRAS (HRAS wild-type protein; [4])	NRAS /KRAS [1, 5]	HRAS /KRAS (HRAS wild-type protein; [6])	IC50 ([2]; NCI-H441 cells, 4 days, CellTiter-Glo, read-out: NCl-H441 IC50)	NRAS /KRAS ([1]; ratio of KD value for GDP-bound NRAS wild-type protein to KD value for KRAS (SPR))	HRAS /KRAS (HRAS wild-type protein; ratio of KD value for HRAS wild-type protein to KD value for KRAS (SPR))
CCCCN1C(=O)CN(C)C(=O)CN(C)C(=O)[C@H]([C@@H](C)CC)NC(=O)[C@H](CC(C)C)N(C)C(=O)C[C@@H](C(=O)N2CCOCC2)N(C)C(=O)[C@H](C2CCCC2)N(C)C(=O)C2(CCCC2)NC(=O)[C@@H]2CCCN2C(=O)[C@H](CCc2ccc(C(F)(F)F)c(Cl)c2)NC(=O)CN(C)C(=O)[C@@H]1Cc1ccc(C)cc1 [PP0062] ([NMeL]I[Sar][Sar][X1][Sar][hPhe(3-Cl-4-CF3)]P[Ac5c][NMeGly(cPent)][NMeD]-Morpholide; lactam N-11)	C (A compound having a KD ratio of 0.1 or more and less than 3 is denoted as C)	3.8 nM	C (A compound having a KD ratio of 0.1 or more and less than 3 is denoted as C)	–	–	–	–	–
CCCN1C(=O)[C@@H]2CCN2C(=O)CN(CC#N)C(=O)[C@H]([C@@H](C)CC)NC(=O)[C@H](CC(C)C)N(C)C(=O)C[C@@H](C(=O)N2CCOCC2)N(C)C(=O)[C@H](C2CCCC2)N(C)C(=O)C2(CCCC2)NC(=O)[C@@H]2CCCN2C(=O)[C@H](CCc2ccc(C(F)(F)F)c(Cl)c2)NC(=O)CN(C)C(=O)[C@@H]1Cc1ccc(C(F)(F)F)cc1 [PP0275] ([NMeL]I[X10][Aze][NPrPhe(4-CF3)][Sar][hPhe(3-Cl-4-CF3)]P[Ac5c][NMeGly(cPent)][NMeD]-Morpholide; lactam N-11)	C (A compound having a KD ratio of 0.1 or more and less than 3 is denoted as C)	9.3 nM	C (A compound having a KD ratio of 0.1 or more and less than 3 is denoted as C)	–	–	–	–	–
CCCN1C(=O)[C@@H]2CCN2C(=O)[C@H](C)N(C)C(=O)[C@H]([C@@H](C)CC)NC(=O)[C@H](CC(C)C)N(C)C(=O)C[C@@H](C(=O)N2CCC(C)CC2)N(C)C(=O)[C@H](C2CCCC2)N(C)C(=O)C2(CCCC2)NC(=O)[C@@H]2CCCN2C(=O)[C@H](CCc2ccc(C(F)(F)F)c(Cl)c2)NC(=O)CN(C)C(=O)[C@@H]1Cc1ccc(C(F)(F)F)cc1 [PP0185] ([NMeL]I[NMeA][Aze][NPrPhe(4-CF3)][Sar][hPhe(3-Cl-4-CF3)]P[Ac5c][NMeGly(cPent)][NMeD]-{Piperidide(4-Me)}; lactam N-11)	C (A compound having a KD ratio of 0.1 or more and less than 3 is denoted as C)	32.2 nM	B (a compound having 3 or more and less than 10 is denoted as B)	–	–	–	–	–
C=CCCN1C(=O)[C@@H]2CCN2C(=O)[C@H](C)N(C)C(=O)[C@H]([C@@H](C)CC)NC(=O)[C@H](CC(C)C)N(C)C(=O)C[C@@H](C(=O)N2CCOCC2)N(C)C(=O)[C@H](C2CCCC2)N(C)C(=O)C2(CCCC2)NC(=O)[C@@H]2CCCN2C(=O)[C@H](CCc2ccc(C(F)(F)F)c(Cl)c2)NC(=O)CN(C)C(=O)[C@@H]1Cc1ccc(C)cc1 [PP0089] ([NMeL]I[NMeA][Aze][X46][Sar][hPhe(3-Cl-4-CF3)]P[Ac5c][NMeGly(cPent)][NMeD]-Morpholide; lactam N-11)	C (A compound having a KD ratio of 0.1 or more and less than 3 is denoted as C)	5.5 nM	B (a compound having 3 or more and less than 10 is denoted as B)	–	–	–	–	–
CCC[C@H]1C(=O)N[C@@H]([C@@H](C)CC)C(=O)N2CC[C@H]2C(=O)N(C)[C@H]2C/C=C\CCN(C2=O)[C@@H](Cc2ccc(C(F)(F)F)cc2)C(=O)N(C)CC(=O)N[C@@H](CCc2cc(F)c(C(F)(F)F)c(F)c2)C(=O)N2C[C@H](OCC)C[C@H]2C(=O)NC2(CC(C)(C)C2)C(=O)N(C)[C@@H](C2CCCC2)C(=O)N(C)[C@H](C(=O)N(C)C)CC(=O)N1C [PP1925]	–	9.7 nM	–	A (a compound having 10 or more and less than 20 is denoted as A)	A (a compound having 10 or more and less than 20 is denoted as A)	–	–	–
C=CC[C@H]1C(=O)N[C@@H]([C@@H](C)CC)C(=O)N(C)CC(=O)N(C)[C@H]2CCCCN(C2=O)[C@@H](Cc2ccc(C(F)(F)F)cc2)C(=O)N(C)CC(=O)N[C@@H](CCc2cc(F)c(C(F)(F)F)c(F)c2)C(=O)N2C[C@H](OCC)C[C@H]2C(=O)N[C@](C)(CC=C)C(=O)N(C)[C@@H](C2CCCC2)C(=O)N(C)[C@H](C(=O)N2CCOCC2)CC(=O)N1C [PP0874]	C (A compound having a KD ratio of 0.1 or more and less than 3 is denoted as C)	4.9 nM	B (a compound having 3 or more and less than 10 is denoted as B)	–	–	–	–	–
CCCN1C(=O)CN(C)C(=O)CNC(=O)[C@H]([C@@H](C)CC)NC(=O)[C@H](CC(C)C)N(C)C(=O)C[C@@H](C(=O)N2CCOCC2)NC(=O)[C@H](C2CCCC2)N(C)C(=O)C2(CCC2)NC(=O)[C@@H]2CCCN2C(=O)[C@H](CCc2ccc(C(F)(F)F)c(Cl)c2)NC(=O)CN(C)C(=O)[C@@H]1Cc1ccc(C(F)(F)F)cc1 [PP0326] ([NMeL]IG[Sar][NPrPhe(4-CF3)][Sar][hPhe(3-Cl-4-CF3)]P[Ac4c][NMeGly(cPent)]D-Morpholide; lactam N-11)	B (a compound having 3 or more and less than 10 is denoted as B)	172 nM	B (a compound having 3 or more and less than 10 is denoted as B)	–	–	–	–	–
CCC[C@@H]1C[C@H]2C(=O)NC3(CCC3)C(=O)N(C)[C@@H](C3CCCC3)C(=O)N(C)[C@H](C(=O)N(C)C)CC(=O)N(C)[C@@H](CCC)C(=O)N[C@@H]([C@@H](C)CC)C(=O)N(C)CC(=O)N(C)[C@H]3C/C=C\CCN(C3=O)[C@@H](Cc3ccc(C)cc3)C(=O)N(C)CC(=O)N[C@@H](CCc3ccc(C(F)(F)F)c(Cl)c3)C(=O)N2C1 [PP2238]	–	39.3 nM	–	A (a compound having 10 or more and less than 20 is denoted as A)	A (a compound having 10 or more and less than 20 is denoted as A)	–	–	–
CCOC[C@H]1C(=O)N[C@@H]([C@@H](C)CC)C(=O)N(C)CC(=O)N(C)[C@H]2C/C=C\CCN(C2=O)[C@@H](Cc2ccc(OC)cc2)C(=O)N(C)CC(=O)N[C@@H](CCc2ccc(C(F)(F)F)c(OC)c2)C(=O)N2C[C@@H](C)C[C@H]2C(=O)NC2(CC(C)(C)C2)C(=O)N(C)[C@@H](C2CCCC2)C(=O)N(C)[C@H](C(=O)N(C)CC)CC(=O)N1C [PP2702]	A (a compound having 10 or more and less than 20 is denoted as A)	–	B (a compound having 3 or more and less than 10 is denoted as B)	–	–	21.4 nM	–	–
CCO[C@@H]1C[C@H]2C(=O)NC3(CCC3)C(=O)N(C)[C@@H](C3CCCC3)C(=O)N(C)[C@H](C(=O)N3CCOCC3)CC(=O)N(C)[C@@H](CC)C(=O)N[C@@H]([C@@H](C)CC)C(=O)N(C)CC(=O)N(C)[C@H]3CCCCCN(C3=O)[C@@H](Cc3ccc(C(F)(F)F)cc3)C(=O)N(C)CC(=O)N[C@@H](CCc3cc(F)c(C(F)(F)F)c(F)c3)C(=O)N2C1 [PP0678]	–	35.6 nM	–	B (a compound having 3 or more and less than 10 is denoted as B)	B (a compound having 3 or more and less than 10 is denoted as B)	–	–	–
CCO[C@@H]1C[C@H]2C(=O)NC3(CC(C)(C)C3)C(=O)N(C)[C@@H](C3CCCC3)C(=O)N(C)[C@H](CC)CC(=O)N(C)[C@@H](CC)C(=O)N[C@@H]([C@@H](C)CC)C(=O)N(C)CC(=O)N(C)[C@H]3C/C=C\CCN(C3=O)[C@@H](Cc3ccc(C(F)(F)F)cc3)C(=O)N(C)CC(=O)N[C@@H](CCc3cc(F)c(C(F)(F)F)c(F)c3)C(=O)N2C1 [PP1623]	–	4.5 nM	–	–	–	–	A (a compound having 10 or more and less than 20 is denoted as A)	A (a compound having 10 or more and less than 20 is denoted as A)
CCO[C@@H]1C[C@H]2C(=O)NC3(CCC3)C(=O)N(C)[C@@H](C3CCCC3)C(=O)N3CCC[C@@H]3CC(=O)N(C)[C@@H](CC)C(=O)N[C@@H]([C@@H](C)CC)C(=O)N(C)CC(=O)N(C)[C@H]3C/C=C\CCN(C3=O)[C@@H](Cc3ccc(C(F)(F)F)cc3)C(=O)N(C)CC(=O)N[C@@H](CCc3cc(F)c(C(F)(F)F)c(F)c3)C(=O)N2C1 [PP1097]	B (a compound having 3 or more and less than 10 is denoted as B)	10.2 nM	B (a compound having 3 or more and less than 10 is denoted as B)	–	–	–	–	–
CCCN1C(=O)CN(C)C(=O)CNC(=O)[C@H]([C@@H](C)CC)NC(=O)[C@H](CC(C)C)N(C)C(=O)C[C@@H](C(=O)N(C)C)NC(=O)[C@H](C2CCCC2)N(C)C(=O)C2(CCC2)NC(=O)[C@@H]2C[C@@H](OCC)CN2C(=O)[C@H](CCc2ccc(C(F)(F)F)c(Cl)c2)NC(=O)CN(C)C(=O)[C@@H]1Cc1ccc(C(F)(F)F)cc1 [PP0366] ([NMeL]IG[Sar][NPrPhe(4-CF3)][Sar][hPhe(3-Cl-4-CF3)][Hyp](Et)[Ac4c][NMeGly(cPent)]D-NMe2; lactam N-11)	B (a compound having 3 or more and less than 10 is denoted as B)	80.2 nM	B (a compound having 3 or more and less than 10 is denoted as B)	–	–	–	–	–
